Source: article PMC12013085, “Peptides targeting RAB11A–FIP2 complex inhibit HPIV3, RSV, and IAV replication as broad-spectrum antivirals” (Cell & Bioscience, 2025)
Where a SMILES comes first, the peptide text is derived from it.

Tests used:
[1] = test system: HPIV3HA-P vRNP; experiment: vRNP distribution by immunofluorescence in HPIV3HA-P-infected HeLa cells; type: cell-based; conditions: HPIV3HA-P MOI = 0.01, 5 μM peptide, 24 h
Method: (§1) Data are presented as means ± SEM
HeLa cells were cultured on coverslips in 24-well plates overnight and subjected to transfection or/and virus infection as indicated. Following this, cells were fixed with 4% paraformaldehyde for 20 min at room temperature (RT) and permeabilized with 0.2% Triton X-100 for 20 min at RT. Subsequently, cells were blocked with 3% bovine serum albumin (BSA) in PBS for 30 min at RT. The cells were then incubated with primary antibodies diluted in 1% BSA, followed by incubation with secondary antibodies, also diluted in 1% BSA. Nuclei were counterstained with DAPI, and plasma membrane were stained with Dil. Confocal microscopy images were acquired using a Leica confocal microscope.

[2] = test system: HPIV3, RSV, and IAV; type: cell-based
[3] = test system: WSN virus; type: in vivo, BALB/c mice
[4] = test system: HPIV3 VLPs in 293T cells; experiment: HPIV3 VLP budding and plasma membrane fraction assay, WB; type: cell-based; conditions: 293T cells, compared to Tat-treated control
Method: as §1
The cell lysates were prepared as described for the Western blot (WB) analysis. The supernatant was harvested and clarified by centrifugation at 12,000×g for 5 min. Subsequently, the supernatant was pelleted through a 20% sucrose cushion at 4 °C at 35,000 rpm for 2 h. The VLP pellets obtained were resuspended in PBS and boiled with SDS-PAGE loading buffer at 100 °C for 10 min. Both the cell lysates and the supernatants were then subjected to WB analysis.
293T cells, cultured in 6-cm dishes, were transfected with the indicated plasmids for 24 h. Cell collection was performed through centrifugation at 500×g for 5 min at 4 °C. Subsequently, cytosol, organelle membrane, and plasma membrane-associated proteins were extracted sequentially using the MinuteTM plasma membrane protein isolation and cell fractionation kit (INVENT), following the manufacturer's instructions.

[5] = In vivo biodistribution of Cy5-YT-DRI, IVIS imaging; conditions: BALB/c mice, i.p. administration
Method: Female BALB/c mice, aged 6–8 weeks, were randomly divided into two groups. One group received an intraperitoneal injection of PBS (n = 3) for background fluorescence measurement, while the other group received 5 mg/kg Cy5-YT-DRI (n = 3). Bioluminescence readings were performed at various time points using the IVIS Lumina K Series III. Following imaging, mice were euthanized, and the indicated tissues were collected for further evaluation of fluorescence values. The average radiance is expressed as the sum of photons per second from each pixel inside the region of interest per the number of pixels (p s^−1 cm^−2 sr^−1).
Supplementary file 13578_2025_1384_MOESM7_ESM.tif: Supplementary Material 7. Fig. S7. In Vivo biodistribution of Cy5-YT-DRI. (A) Mice were treated with PBS or Cy5-YT-DRI (5mg/kg) via intraperitoneal injection. Bioluminescence readings were conducted at different time points using the IVIS Lumina K Series III for ventral (the upper row) and dorsal (the lower row) views, and the average radiance is expressed as the sum of the photons per second from each pixel inside the region of interest per the number of pixels (p s−1 cm−2 sr−1). (B-F) Representative images of the brains(B), lungs (C), livers (D), kidneys (E), and hearts (F) from the PBS-treated or Cy5-YT-DRI-treated mice. (G) Normalized bioluminescence results are expressed as means ± SEM from at least two experiments. […]

[6] = test system: HPIV3
[7] = In vivo drug toxicity study; conditions: male ICR mice, 5 or 10 mg/kg i.p. for consecutive 3 days
Method: The 6–8 weeks old male ICR male mice, were randomly assigned into three groups and each group had 5 mice. The mice were i.p. injected with 5 mg/kg YT-DRI, 10 mg/kg YT-DRI, or the same volume of PBS for consecutive 3 days. During the experiment, body weight was recorded for 15 days. At the end of the experiment, the mice were perfused, and tissue samples of heart, liver, lung, and kidney were collected for histopathological examination.
Supplementary file 13578_2025_1384_MOESM8_ESM.tif: Supplementary Material 8. Fig. S8. In vivo safety of YT-DRI. (A) Body weight changes of the 6-week-old ICR mice treated with PBS or 5 mg/kg or 10 mg/kg of YT-DRI at the indicated time points. (B) Hematoxylin and eosin staining of various tissues under an optical microscope for histopathological morphology analysis at 14 days after i.p. administration. Scale bar, 200 μm.

[8] = test system: EV71; type: cell-based, Enterovirus 71; conditions: HeLa cells, EV71 MOI = 0.1, escalating concentrations, 24 hpi, TCID50
[9] = test system: RAB11A–FIP2 complex; experiment: In vitro co-IP of mixed 293T lysates (FIP2, N protein, RAB11A)
Method: 293 T cells were individually transfected with plasmids encoding FIP2, the N protein, and RAB11A for 36 h, after which their lysates were mixed for in vitro co-IP analysis. […] All experiments were independently replicated at least twice with consistent results. Statistical significance (*p < 0.05) was determined by two-sided unpaired t-test. Data are presented as means ± SEM
293T cells were transfected with the indicated plasmids for 36 h, and cell lysates were prepared using lysis buffer as described in the Western blot (WB) analysis section. The supernatants were collected and incubated with anti-Flag or anti-Myc magnetic beads (MCE) following the manufacturer’s instructions for co-IP. The immunoprecipitated proteins were then analyzed via WB.

[10] = test system: HeLa, A549, MK2, MDCK and HEp-2 cells; conditions: CCK-8, 24 h treatment, in the tested cell lines (HeLa, A549, MK2, MDCK, HEp-2)
[11] = test system: RSV
[12] = test system: RSV; type: in vivo, nude BALB/c mice
[13] = test system: HPIV3 clinical strain VR93; type: in vivo, nude BALB/c mice
[14] = test system: IAV; type: cell-based, influenza A virus; conditions: IAV MOI 0.01, 5 μM, 24 hpi, TCID50

For `CC[C@@H](C)[C@@H](NC(=O)[C@@H](CC(=O)O)NC(=O)[C@@H](CC(N)=O)NC(=O)[C@@H](CC(C)C)NC(=O)[C@@H](CC(C)C)NC(=O)[C@H](NC(=O)[C@@H](CCCNC(=N)N)NC(=O)[C@H](NC(=O)[C@@H](CCSC)NC(=O)[C@@H](CCC(=O)O)NC(=O)[C@@H](CCC(=O)O)NC(=O)[C@H](NC(=O)[C@@H](CCCNC(=N)N)NC(=O)[C@@H](CCCCN)NC(=O)[C@@H](CCCCN)NC(=O)[C@@H](CCCNC(=N)N)NC(=O)[C@@H](CCCNC(=N)N)NC(=O)[C@@H](CCC(N)=O)NC(=O)[C@@H](CCCNC(=N)N)NC(=O)[C@@H](CCCNC(=N)N)NC(=O)[C@H](N)CCCNC(=N)N)[C@H](C)O)C(C)C)C(C)C)C(=O)N[C@H](Cc1ccc(O)cc1)C(=O)O` [YT-DRI] (HELM PEPTIDE1{[dR].[dR].[dR].[dQ].[dR].[dR].[dK].[dK].[dR].[dT].[dE].[dE].[dM].[dV].[dR].[dV].[dL].[dL].[dN].[dD].[dI].[dY]}$$$$V2.0; N-terminus and C-terminus assumed), the vRNP localization [1] was “formation of large aggregates of vRNP in the cytoplasm”, the “replication of HPIV3, RSV, and IAV in coinfection (viral RNA accumulation)” value [2] was “markedly impeded the replication” and the “body weight loss, IAV (WSN)-infected mice” value ([3]; 2 mg/kg i.p. once daily Day 0 to Day 4) was “reduced body weight loss”. The “survival rate, lethal IAV (WSN) infection” value ([3]; 2 mg/kg i.p. once daily Day 0 to Day 4, observed until 14 dpi, n = 5) was 80%, the “viral RNA copies in the lungs, IAV (WSN)” value ([3]; 2 mg/kg i.p., 4 dpi, RT-qPCR, vs PBS) was “decreased viral RNA copies” and the “lung histology, IAV (WSN)” value ([3]; 2 mg/kg i.p., 4 dpi, vs PBS) was “milder lung inflammation”. The “levels of N, P, and M proteins in the PM fraction and VLPs” value [4] was “reduced levels”, the “transport across the blood–brain barrier” value [5] was “facilitated transport across the blood–brain barrier” and the “HPIV3 viral growth in WT HeLa cells” value [6] was “significant reduction in viral growth”. For the same compound, the “effect on HPIV3 in RAB11A-KO HeLa cells” value [6] was “moderate and statistically insignificant”, the IC50 ([6]; 36 h) was 940 nM and the “SI (CC50/IC50), HPIV3, A549” value ([6]; 36 h) was greater than 263.16. For the same compound, the “SI (CC50/IC50), HPIV3, HeLa” value ([6]; 36 h) was greater than 159.57, the “SI (CC50/IC50), HPIV3, MDCK” value ([6]; 36 h) was greater than 102.74 and the “acute toxicity: body weight” value ([7]; body weight recorded for 15 days, 5 mice per group) was “no significant changes”. The “acute toxicity: histopathological morphology” value ([7]; heart, liver, lung, kidney, H&E) was “no significant changes”, the “EV71 replication, treated compared to untreated cells” value [8] was “no significant differences” and the N-RAB11A interaction [9] was “undetectable”. For the same compound, the “interaction between FIP2 and RAB11A” value ([9]; in contrast to control peptide Tat) was “significantly attenuated”, the CC50 [10] was greater than 150000 nM and the “SI (CC50/IC50), RSV, A549” value ([11]; 2 h) was greater than 405.41. For the same compound, the “SI (CC50/IC50), RSV, HEp-2” value ([11]; 2 h) was greater than 681.82, the “SI (CC50/IC50), RSV, HeLa” value ([11]; 2 h) was greater than 220.59 and the “SI (CC50/IC50), RSV, MDCK” value ([11]; 2 h) was greater than 326.09. The “antiviral effect on RSV infection in RAB11A-KO HeLa cells” value ([11]; RSV MOI 0.1, 5 μM, 24 hpi, TCID50) was “no significant antiviral effect”, the “body weight loss, RSV-infected mice” value ([12]; 2 mg/kg i.p. once daily Day 0 to Day 3, vs PBS, n = 5) was “reduced body weight loss” and the “lung histology, RSV” value ([12]; 2 mg/kg i.p., 4 dpi, H&E) was “diminished lung tissue damage”. The “viral RNA copies in the lung, RSV” value ([12]; 2 mg/kg i.p., 4 dpi, RT-qPCR) was “lower viral RNA copies”, the “infectious titers in the lung, RSV” value ([12]; 2 mg/kg i.p., 4 dpi, TCID50) was “decreased infectious titers” and the “body weight loss, HPIV3-infected mice” value ([13]; 2 mg/kg i.p. once daily Day 0 to Day 2, vs PBS, n = 5) was “less weight loss”. The “lung histology, HPIV3” value ([13]; 2 mg/kg i.p., 3 dpi, H&E, vs PBS) was “reduced lung inflammation”, the “viral RNA copies in the lung, HPIV3” value ([13]; 2 mg/kg i.p., 3 dpi, RT-qPCR) was “significantly decreased” and the “infectious titers in the lung, HPIV3” value ([13]; 2 mg/kg i.p., 3 dpi, TCID50) was “significantly decreased”. For the same compound, the “antiviral effect on IAV infection in RAB11A-KO HeLa cells” value [14] was “no significant antiviral effect”.
